Measured values from patent US20070117834A1, “Methods and compositions for treating Huntington's disease” (priority 2005, published 2007).
Entries after “also recorded” stand apart in the source; their conditions may differ.

Experiments:
[1] = tested on: transgenic Drosophila engineered to express the mutant huntingtin protein in all their neurons; settings: historical reference; cited from earlier work
[2] = tested on: wildtype Drosophila fruit flies; assay: Toxicity of dimebon in wildtype Drosophila (eclosion number and timing); assay type: in vivo
Protocol: Dimebon was evaluated for toxicity levels in wildtype Drosophila fruit flies. Dimebon was administered daily at doses ranging from 10 μM to 1 mM to explore its toxicity. An untreated control group was also studied in this experiment. The concentrations given were concentrations of dimebon in the food that animals drink/eat ad libitum. The food consisted of cornmeal (61.2 g), dextrose (129.4. g), yeast (32.4 g) and agar (9.3 g) in 1 liter of water. Concentrated compounds were added to melted agar food cooled to just above the point of setting (about 40° C.), mixed and dispensed.
About 500 wild type Drosophila eggs were collected on grape juice plates for 20 hours, washed with distilled water and transferred 100 per vial to grow at 25 degrees C. The adult progeny were scored after eclosing (emerging from the pupal case) beginning 10 days later to assess developmental delay and toxicity. The criteria used for toxicity were the number (%) of animals that eclose and the time of the eclosing. For example, fewer animals may emerge from the pupal case if a drug is toxic or the same number of animals may eclose but more slowly than the untreated control group.
The toxicity test employed five concentrations (10 μM, 30 μM, 100 μM, 300 μM, 1 mM) plus an untreated control and was repeated with five sets of flies. […] At 1 mM, there was approximately a 20% decrease in eclosion observed, indicating toxicity at this food concentration. ANOVA analysis indicated a significant difference between datasets (p=0.0031), with post-hoc testing indicating a significant difference between the control and 1 mM datasets (p<0.01).

[3] = tested on: transgenic Drosophila engineered to express the mutant huntingtin protein in all their neurons; assay: Inhibition of mutant huntingtin-induced neurodegeneration of photoreceptor neurons in Drosophila eyes (pseudopupil scoring); assay type: in vivo; settings: for rescue of photoreceptor neurons / rescue of photoreceptor neurons compared to untreated controls: FIG. 2; for rescue of photoreceptor neurons compared to untreated controls: 7 days on drug-containing food; for suppression of photoreceptor neuron degeneration, retest: FIG. 3; for protection of photoreceptors, overall statement: in vivo
Protocol: Dimebon was administered to one group of transgenic Drosophila engineered to express the mutant huntingtin protein in all their neurons. This was accomplished by cloning a foreign gene into transposable p-element DNA vectors under control of a yeast upstream activator sequence that is activated by the yeast GAL4 transcription factor. These promoter fusions were injected into fly embryos to produce transgenic animals. The foreign gene is silent until crossed to another transgenic strain of flies expressing the GAL4 gene in a tissue specific manner. The Elav>Gal4 which expresses the transgene in all neurons from birth until death was used in the experiments described.
For compound testing, 20-30 Httex1pQ93 virgins were mated to elav>Gal4 males and eggs were collected for about 20 hours at 25° C. and dispensed into vials (expected about 70% lethality from Htt effects). Upon eclosion, at least 80, 0-8 hour old flies were harvested and place on drug-containing food (20 eclosed adults per vial) and scored when 7 days old. Inhibitor-containing food was prepared just before tester flies began to emerge.
The two types of transgenic animals were crossed in order to collect enough closely matched aged controls to study. The crossed aged-matched adults (about 20 per dosing group) were placed on drug-containing food for 7 days. Animals were transferred to fresh food daily to minimize any effects caused by instability of the compounds. Survival was scored daily. The average number of photoreceptors at day zero was determined by scoring 7-10 of the newly eclosed tester siblings within six hours of eclosing. This established the baseline of degeneration at the time of exposure to drug. At day 7, animals were sacrificed and the number of photoreceptor neurons surviving was counted. […] For pseudopupil analysis, flies were decapitated and the heads are mounted in a drop of nail polish on a microscopic slide. The head was then covered with immersion oil and light is projected through the eye of the fly using a Nikon EFD-3/Optiphot-2 compound microscope with a 50× oil objective.

[4] = tested on: transgenic Drosophila engineered to express the mutant huntingtin protein in all their neurons; assay: Motor ability (climbing assay) in the Drosophila model; assay type: in vivo; settings: for numbers surviving to be tested at day 7: initial number of 20 animals at day 0
Protocol: The motor function of Drosophila obtained as described in the examples above was assessed by exploiting the strong negative geotropism of flies to climb upwards when they are tapped to the bottom of a vial. See, Le Bourg and Lint (1992) Hypergravity and aging in Drosophila melanogaster. 4. […] activity. Gerontology 38, 59-64. Animals were placed in a graduated vessel (e.g., a measuring cylinder). The distance climbed in 10 seconds was measured for each animal over 3 trials with a 5 minute rest period. In a separate experiment using tall thin plastic tubes rather than glass vials, the distance climbed in 30 seconds was also measured. Animals were scored for outcome without knowledge of treatment group. Flies were tested for functional rescue using a behavior assay (climbing assay) where the distance climbed was measured. […] In this assay, climbing was scored blind and each animal was given 3 trials that were then averaged. The climbing of 7 day old animals reared on 0, 10, 100 or 1,000 μM containing food was compared as was the climbing of animals on the day of eclosion. Two trials were performed. In the first, the ability to climb in large glass vials was monitored over 10 seconds. […] The second trial was similar to the first except that animals were tested in tall thin plastic tubes for climbing over 30 seconds. […] The data from the two independent climbing trials are plotted as individual data points in FIG. 6A and 6B. A higher statistical power (e.g., 0.8) given the observed standard deviations and differences of the means may be achieved by doubling the size of the experiment for the highest concentration and increasing about 10 fold for the lower concentrations.

C[C@@H](N)[C@H]1CC[C@H](C(=O)Nc2ccncc2)CC1 [Y-27632]
rescue of photoreceptor neurons, historical positive control [1]: strongly rescuing

Cc1ccc2c(c1)c1c(n2CCc2ccc(C)nc2)CCN(C)C1.Cl.Cl [dimebon, 2,8-dimethyl-5-(2-(6-methyl-3-pyridyl)-ethyl)-2,3,4,5-tetrahydro-1H-pyrido[4,3-b]indole dihydrochloride]
timing of emergence slowed ([2]; 1 mM): approximately 1 day
decrease in eclosion ([2]; 1 mM in the food): ~20%
toxicity (tolerability) ([2]; 10 to 300 μM in the food, below 1 mM, dihydrochloride): generally well tolerated; also recorded: no significant toxicity
toxicity in Drosophila, overall statement ([2]; FIG. 1 / experimental summary): minimal toxicity
rescue of photoreceptor neurons ([3]; 10 μM): lesser but still apparent rescue of neurons
rescue of photoreceptor neurons compared to untreated controls ([3]; 100 μM, dihydrochloride): statistically significant (p=0.0014) rescue of neurons
rescue of photoreceptor neurons compared to untreated controls ([3]; 100 μM, listed as Dimebon, dihydrochloride): significant suppression of neuronal degeneration
suppression of photoreceptor neuron degeneration, retest ([3]; 100 μM, dihydrochloride): significant improvement; also recorded: significant rescue
rescue of photoreceptor neurons ([3]; 1 mM): still appeared to cause neuronal rescue, but to a lesser extent
suppression of photoreceptor neuron degeneration, lower concentrations ([3]; 1, 10 and 30 μM, FIG. 4, dihydrochloride): no statistically significant improvement; also recorded: modest tendency for improved photoreceptor numbers
suppression of photoreceptor neuron degeneration, retest ([3]; higher doses (300 or 1,000 μM)): no statistically demonstrable improvement
protection of photoreceptors, overall statement ([3]; dihydrochloride): effective in inhibiting mutant huntingtin-induced neurodegeneration
protection of photoreceptors, overall statement ([3]; listed as Dimebon, dihydrochloride): protect photoreceptors in a dose-dependant manner
previously measured optimum concentration ([3]; photoreceptor rescue): 100 µM
numbers surviving to be tested at day 7 ([4]; 10 μM): 8
numbers surviving to be tested at day 7 ([4]; 100 μM): 12
climbing behavior over 10 seconds ([4]; 1 mM (1000 μM), 7 day old animals, glass vials, FIG. 5, dihydrochloride): significant difference between the control and 1000 μM; also recorded: statistically significant improvement in climbing; also recorded: statistical difference between D7ND and 1 mM
numbers surviving to be tested at day 7 ([4]; 1 mM): 8
climbing behavior over 30 seconds ([4]; 10, 100 or 1,000 μM, tall thin plastic tubes, second trial, dihydrochloride): No statistically demonstrable difference between treated and control groups
